Results reported in ChEMBL document CHEMBL5360577, “Multicomponent Petasis reaction for the identification of pyrazine based multi-target directed anti-Alzheimer's agents: In-silico design, synthesis, and characterization” (Eur J Med Chem, 2023).
Active and inactive are the calls of the source. The calls are words filed in the database; no cut-off is given here.

Columns and labels:
[1] = biological target: T1, Acetylcholinesterase (Homo sapiens, UniProt P22303); experiment: Inhibition of human AChE using acetylthiocholine as substrate at 10 uM by Ellman's method
[2] = biological target: T1, Acetylcholinesterase; experiment: Inhibition of human AChE using acetylthiocholine as substrate at 10 uM by Ellman's method relative to control
[3] = biological target: T1, Acetylcholinesterase; experiment: Inhibition of human AChE using acetylthiocholine as substrate by Ellman's method
[4] = biological target: T2, Microtubule-associated protein tau (Homo sapiens, UniProt P10636); experiment: Inhibition of cellular tau (unknown origin) aggregation at 10 uM incubated for 2 hrs by FRET assay
[5] = biological target: T2, Microtubule-associated protein tau; experiment: Inhibition of cellular tau (unknown origin) aggregation incubated for 2 hrs by FRET assay
[6] = test system: SH-SY5Y; experiment: Neuroprotective activity in human SH-SY5Y cell model transfected with wild-type tau assessed as cell viability at 1 to 10 uM by MTT assay; type: functional, cell-based; settings: dose 1-10 µM
[7] = biological target: Amyloid-beta precursor protein (Homo sapiens) (UniProt P05067); experiment: Inhibition of amyloid beta (unknown origin) aggregation at 10 uM relative to control
[8] = biological target: T2, Microtubule-associated protein tau; experiment: Inhibition of tau (unknown origin) aggregation at 10 uM relative to control
[9] = biological target: Cholinesterase (Homo sapiens, UniProt P06276); experiment: Inhibition of human BuChE by Ellman's method
[10] = biological target: T1, Acetylcholinesterase; experiment: Inhibition of human AChE by Ellman's method
[11] = biological target: T3, Amine oxidase [flavin-containing] B (Homo sapiens, UniProt P27338); experiment: Inhibition of human MAO-B by fluorometric assay
T3 sequence (P27338 whole entry): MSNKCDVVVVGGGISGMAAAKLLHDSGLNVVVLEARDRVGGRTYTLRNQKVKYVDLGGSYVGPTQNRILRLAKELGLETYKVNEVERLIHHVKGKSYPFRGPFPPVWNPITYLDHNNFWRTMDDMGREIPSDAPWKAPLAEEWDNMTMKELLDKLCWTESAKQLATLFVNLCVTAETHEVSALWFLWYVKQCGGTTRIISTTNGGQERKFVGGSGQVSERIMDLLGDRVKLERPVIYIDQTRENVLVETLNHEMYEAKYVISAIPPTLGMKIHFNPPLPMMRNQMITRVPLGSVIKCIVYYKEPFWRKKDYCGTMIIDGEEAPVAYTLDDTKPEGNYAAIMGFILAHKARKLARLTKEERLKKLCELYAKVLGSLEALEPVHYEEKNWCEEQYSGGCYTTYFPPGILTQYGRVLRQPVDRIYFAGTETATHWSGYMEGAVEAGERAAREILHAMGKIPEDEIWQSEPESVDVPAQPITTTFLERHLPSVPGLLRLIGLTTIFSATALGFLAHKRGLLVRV

T1 sequence (P22303 whole entry): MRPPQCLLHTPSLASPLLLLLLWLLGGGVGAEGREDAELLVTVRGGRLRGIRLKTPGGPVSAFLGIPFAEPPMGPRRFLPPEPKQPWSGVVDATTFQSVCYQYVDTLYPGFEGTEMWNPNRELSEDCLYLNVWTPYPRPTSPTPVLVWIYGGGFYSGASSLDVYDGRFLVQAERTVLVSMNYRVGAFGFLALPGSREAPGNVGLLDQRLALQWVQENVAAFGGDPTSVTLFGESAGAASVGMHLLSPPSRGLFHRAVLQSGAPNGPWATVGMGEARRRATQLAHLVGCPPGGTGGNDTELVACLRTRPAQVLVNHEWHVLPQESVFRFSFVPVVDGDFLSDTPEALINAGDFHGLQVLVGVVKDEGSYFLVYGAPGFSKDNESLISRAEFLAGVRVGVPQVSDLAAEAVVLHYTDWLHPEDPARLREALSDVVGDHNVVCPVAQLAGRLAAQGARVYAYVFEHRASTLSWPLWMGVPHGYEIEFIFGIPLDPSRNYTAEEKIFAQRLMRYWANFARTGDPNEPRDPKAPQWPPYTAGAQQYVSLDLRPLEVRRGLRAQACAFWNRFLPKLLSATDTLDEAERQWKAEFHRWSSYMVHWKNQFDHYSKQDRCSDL
T2 sequence (P10636 whole entry): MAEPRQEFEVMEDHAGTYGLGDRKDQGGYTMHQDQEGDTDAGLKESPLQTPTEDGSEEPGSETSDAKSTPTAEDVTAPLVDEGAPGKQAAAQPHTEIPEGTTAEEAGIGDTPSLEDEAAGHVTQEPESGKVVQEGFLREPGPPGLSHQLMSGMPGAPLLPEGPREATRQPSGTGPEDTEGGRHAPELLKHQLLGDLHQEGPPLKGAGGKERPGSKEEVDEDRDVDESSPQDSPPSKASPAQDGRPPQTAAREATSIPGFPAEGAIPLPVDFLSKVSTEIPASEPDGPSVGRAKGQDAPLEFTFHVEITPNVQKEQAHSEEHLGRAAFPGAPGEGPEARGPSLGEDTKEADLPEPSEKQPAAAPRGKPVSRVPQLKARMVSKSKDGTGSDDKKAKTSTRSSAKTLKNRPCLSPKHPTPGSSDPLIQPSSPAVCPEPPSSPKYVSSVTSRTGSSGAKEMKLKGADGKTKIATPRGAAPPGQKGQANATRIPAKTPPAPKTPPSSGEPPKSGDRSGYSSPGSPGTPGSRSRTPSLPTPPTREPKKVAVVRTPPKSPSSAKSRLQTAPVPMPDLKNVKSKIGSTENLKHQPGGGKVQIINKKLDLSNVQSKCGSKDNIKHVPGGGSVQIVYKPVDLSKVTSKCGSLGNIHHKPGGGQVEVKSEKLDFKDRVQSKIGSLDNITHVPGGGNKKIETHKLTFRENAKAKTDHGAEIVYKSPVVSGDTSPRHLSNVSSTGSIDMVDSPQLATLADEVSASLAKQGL
Sequence of Cholinesterase (P06276 whole entry): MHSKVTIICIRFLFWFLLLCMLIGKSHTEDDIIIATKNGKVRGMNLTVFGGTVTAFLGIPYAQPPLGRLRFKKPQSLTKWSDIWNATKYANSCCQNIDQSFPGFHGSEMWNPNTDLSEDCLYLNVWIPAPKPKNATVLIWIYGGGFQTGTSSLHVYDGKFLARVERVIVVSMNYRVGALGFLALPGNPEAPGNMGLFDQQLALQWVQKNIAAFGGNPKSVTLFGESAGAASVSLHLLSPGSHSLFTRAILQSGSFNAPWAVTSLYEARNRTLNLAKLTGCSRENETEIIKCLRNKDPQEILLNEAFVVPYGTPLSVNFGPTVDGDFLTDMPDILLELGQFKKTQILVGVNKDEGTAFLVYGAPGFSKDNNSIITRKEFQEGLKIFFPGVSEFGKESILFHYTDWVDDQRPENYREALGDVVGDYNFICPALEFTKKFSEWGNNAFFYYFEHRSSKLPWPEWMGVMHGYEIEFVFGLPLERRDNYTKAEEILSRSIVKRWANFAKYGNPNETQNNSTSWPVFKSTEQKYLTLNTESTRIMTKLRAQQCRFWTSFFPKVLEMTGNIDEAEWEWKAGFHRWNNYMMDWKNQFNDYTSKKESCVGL
Sequence of Amyloid-beta precursor protein (Homo sapiens) (P05067 whole entry): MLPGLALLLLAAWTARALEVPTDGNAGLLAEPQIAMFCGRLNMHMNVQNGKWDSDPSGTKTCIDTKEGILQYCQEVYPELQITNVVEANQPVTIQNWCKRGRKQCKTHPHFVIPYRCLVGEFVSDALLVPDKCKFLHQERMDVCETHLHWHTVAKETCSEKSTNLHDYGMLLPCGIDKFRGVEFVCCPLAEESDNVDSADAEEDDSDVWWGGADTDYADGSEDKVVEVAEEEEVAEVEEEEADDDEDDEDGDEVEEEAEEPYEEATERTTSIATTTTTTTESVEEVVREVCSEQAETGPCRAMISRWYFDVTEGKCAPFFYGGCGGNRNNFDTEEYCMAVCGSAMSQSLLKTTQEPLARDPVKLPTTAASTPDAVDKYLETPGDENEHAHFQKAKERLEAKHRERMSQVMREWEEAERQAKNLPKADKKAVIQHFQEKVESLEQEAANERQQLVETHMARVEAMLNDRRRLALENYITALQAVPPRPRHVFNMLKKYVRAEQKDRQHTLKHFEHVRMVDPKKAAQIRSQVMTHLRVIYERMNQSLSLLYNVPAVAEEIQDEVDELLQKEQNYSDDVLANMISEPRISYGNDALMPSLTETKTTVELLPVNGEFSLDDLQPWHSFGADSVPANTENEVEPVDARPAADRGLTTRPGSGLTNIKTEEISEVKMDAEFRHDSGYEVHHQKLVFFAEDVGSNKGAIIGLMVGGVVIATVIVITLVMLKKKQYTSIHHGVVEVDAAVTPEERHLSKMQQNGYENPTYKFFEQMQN

Structure (SMILES) | inhibition [1] | IC50 [3] [nM] | inhibition [4] | EC50 [5] [nM] | Activity [6] | also measured
Oc1ccccc1C(c1ccc(C(F)(F)F)cc1)N1CCN(c2cnccn2)CC1 (configuration not stated) | Active |  |  |  |  | inhibition [2]: < 40%
COc1cccc(C(c2ccc(F)cc2)N2CCN(c3cnccn3)CC2)c1O (configuration not stated) | Active | 710 | Active | 2210 | Active | 
Cc1ccc(C(c2ccccc2O)N2CCN(c3cnccn3)CC2)cc1 (configuration not stated) | Active | 1090 | Active | 2710 | Active | 
OC(CNCCC(c1ccccc1)c1ccccc1)CNCc1ccccc1 (configuration not stated) |  |  |  |  |  | inhibition [7]: 80%; inhibition [8]: 68%
Cc1cc(C)c(C(=O)/C=C/c2nc(C)c(C)nc2C)cc1C |  |  |  |  |  | IC50 [9]: 37600 nM; IC50 [10]: 2400 nM; IC50 [11]: 11200 nM
